Results as given in patent US20240132513A1, “BENZAZEPINE DERIVATIVES, COMPOSITIONS, AND METHODS FOR TREATING COGNITIVE IMPAIRMENT” (AGENEBIO, INC., priority 2022, published 2024).
Where two headings read alike, the source gives them in different places.

Target: α5β3γ2 GABAA R (Homo sapiens, UniProt P18507+P31644)
Assay: Binding activity on GABAA R: inhibition of [3H]Ro15-1788 binding, α5 containing receptor
Description: Tissue culture and Membrane Preparation: The binding was performed on Ltk cells stably expressing GABAA R: […], α2β3γ2, α3β3γ2 and α5β3γ2 (provided by Merck Co., NJ, USA). Cells were seeded in 100 mm culture plates in DMEM/F12 medium containing 10% serum and antibiotics in 5% CO2 and allowed to grow for 1-2 days. GABAAR expression was then induced by dexamethasone as follows: 0.5 μM for 1 day for α5 containing and 2 μM for 3 days for α1, α2 and α3 containing GABAARs. After induction, cells were collected by scraping into Dulbecco's Phosphate buffered saline (DPBS, pH 7.4, Invitrogen, Carlsbad, CA, USA) and centrifuged at 150×g for 10 min. The pellet was washed twice by re-suspension and centrifugation. The cell pellets from at least 5 different preps were combined, suspended in the binding assay buffer (50 mM KH2PO4; 1 mM EDTA; 0.2 M KCl, pH 7.4) and membranes prepared by sonication (3-5 times, 30 sec) using Branson Sonifier 150 (G. Heinmann, Germany). Protein content was determined using BCA assay (Bio-Rad Labs, Reinach, Switzerland) with Bovine Serum Albumin (Sigma Aldrich, St. Louis, MO, USA) as the standard. Aliquots were prepared and stored at −20° C. for further use in binding assays.
Ligand Binding: Saturation binding curves were obtained by incubating membranes with increasing concentrations (0.01-8 nM) of [^3H]Rol5-1788 (Flumazepil, 75-85 Ci/mmol, PerkinElmer, MA, USA), with nonspecific binding measured in the presence of 10 μM diazepam.
All binding assays were performed for 1 h at 4° C. in assay buffer. The total assay volume was 0.5 ml containing 0.2 mg/ml protein for α5 and 0.4 mg/ml for α1, α2, and α3 containing GABAAR membranes. Incubations were terminated by filtration through GF/B filters using a 24-Cell Harvestor (Brandel, Gaithersburg, MD, USA) followed by 3 washes with ice-cold assay buffer. Filters were transferred to scintillation vials, 5 ml scintillation liquid added, vortex-mixed and kept in dark. Next day, radioactivity was obtained using a scintillation counter (Beckman Coulter, Brea, CA, USA). All assays were performed in triplicate.
Data Analyses: Saturation and inhibition curves were obtained using GraphPad Prism software (GraphPad Software, Inc., CA, USA).

[1] = ranges of the column heads, [3H]Ro15-1788, Ltk cell membranes

Sequence of α5β3γ2 GABAA R (P31644 32-462): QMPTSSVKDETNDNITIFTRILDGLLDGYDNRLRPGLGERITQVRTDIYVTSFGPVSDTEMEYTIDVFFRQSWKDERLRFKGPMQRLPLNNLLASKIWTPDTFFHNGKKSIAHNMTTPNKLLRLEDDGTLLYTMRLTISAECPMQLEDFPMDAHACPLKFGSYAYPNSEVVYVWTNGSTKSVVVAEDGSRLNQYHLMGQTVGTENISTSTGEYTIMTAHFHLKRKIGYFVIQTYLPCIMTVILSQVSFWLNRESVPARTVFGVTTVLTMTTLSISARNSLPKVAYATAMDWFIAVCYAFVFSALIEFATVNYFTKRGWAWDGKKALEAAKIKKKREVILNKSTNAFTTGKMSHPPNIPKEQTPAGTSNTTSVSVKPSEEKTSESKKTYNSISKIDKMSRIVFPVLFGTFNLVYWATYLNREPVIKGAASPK
Sequence of α5β3γ2 GABAA R (P28472 26-473 partner): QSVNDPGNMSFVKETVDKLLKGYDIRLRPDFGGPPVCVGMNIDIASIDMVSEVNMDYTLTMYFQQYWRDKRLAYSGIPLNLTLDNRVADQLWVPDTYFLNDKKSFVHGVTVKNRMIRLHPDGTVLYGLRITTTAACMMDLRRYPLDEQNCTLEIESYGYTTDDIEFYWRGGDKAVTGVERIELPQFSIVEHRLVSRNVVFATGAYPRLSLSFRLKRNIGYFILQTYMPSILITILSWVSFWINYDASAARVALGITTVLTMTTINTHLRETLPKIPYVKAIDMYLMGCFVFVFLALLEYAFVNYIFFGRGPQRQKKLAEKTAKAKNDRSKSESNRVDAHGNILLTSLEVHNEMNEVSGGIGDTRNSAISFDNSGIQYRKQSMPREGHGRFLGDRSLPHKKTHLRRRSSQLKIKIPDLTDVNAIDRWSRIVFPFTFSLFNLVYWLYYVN
Sequence of α5β3γ2 GABAA R (P18507 40-475): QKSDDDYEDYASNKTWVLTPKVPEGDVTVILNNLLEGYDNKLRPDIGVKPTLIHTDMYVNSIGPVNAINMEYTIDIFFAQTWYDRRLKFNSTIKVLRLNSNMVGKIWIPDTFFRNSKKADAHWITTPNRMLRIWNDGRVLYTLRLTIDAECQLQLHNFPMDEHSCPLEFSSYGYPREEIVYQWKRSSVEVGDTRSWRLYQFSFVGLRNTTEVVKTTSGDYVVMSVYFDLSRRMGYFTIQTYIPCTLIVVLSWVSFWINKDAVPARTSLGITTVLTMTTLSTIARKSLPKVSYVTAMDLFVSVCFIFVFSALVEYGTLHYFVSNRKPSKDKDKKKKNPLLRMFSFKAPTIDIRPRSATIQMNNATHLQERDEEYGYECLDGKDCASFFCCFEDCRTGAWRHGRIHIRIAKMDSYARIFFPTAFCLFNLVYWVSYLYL

Ki [1]	SMILES	Ki
	Cc1noc(-c2ncn3c2Cc2cnn(Cc4ccccc4)c2-c2cc(Cl)ccc2-3)n1 [Compound 1]	< 100 nM
	CC(C)c1noc(-c2ncn3c2Cc2cnn(Cc4ccccc4)c2-c2cc(Cl)ccc2-3)n1 [Compound 2]	100 to 1000 nM
	Cc1noc(-c2ncn3c2Cc2cnn(C)c2-c2cc(Cl)ccc2-3)n1 [Compound 3]	< 100 nM
	CC(C)c1noc(-c2ncn3c2Cc2cnn(C)c2-c2cc(Cl)ccc2-3)n1 [Compound 4]	100 to 1000 nM
	Clc1ccc2c(c1)-c1c(cnn1Cc1ccccc1)Cc1c(C3=N[C@H](c4ccccc4)CO3)ncn1-2 [Compound 5]	100 to 1000 nM
	COc1ccc2c(c1)-c1c(cnn1Cc1ccccc1)Cc1c(-c3nc(C(C)C)no3)ncn1-2 [Compound 8]	100 to 1000 nM
100 to 1000 nM	C[C@@H]1COC(c2ncn3c2Cc2cnn(Cc4ccccc4)c2-c2cc(Cl)ccc2-3)=N1 [Compound 12]	
> 1000 nM	C[C@H]1COC(c2ncn3c2Cc2cnn(Cc4ccccc4)c2-c2cc(Cl)ccc2-3)=N1 [Compound 13]	
	COc1ccc2c(c1)-c1[nH]ncc1Cc1c(C3=N[C@@H](c4ccccc4)CO3)ncn1-2 [Compound 15]	< 100 nM
	COc1ccc2c(c1)-c1nn(Cc3ccccc3)cc1Cc1c(-c3nc(C)no3)ncn1-2 [Compound 16]	< 100 nM
	COc1ccc2c(c1)-c1nn(Cc3ccccc3)cc1Cc1c(-c3nc(C(C)(C)C)no3)ncn1-2 [Compound 17]	< 100 nM
100 to 1000 nM	COc1ccc2c(c1)-c1c(cnn1C)Cc1c(-c3nc(C)no3)ncn1-2 [Compound 18]	
> 1000 nM	COc1ccc2c(c1)-c1c(cnn1C)Cc1c(-c3nc(C(C)(C)C)no3)ncn1-2 [Compound 19]	
	COc1ccc2c(c1)-c1nn(Cc3cccc(F)c3)cc1Cc1c(-c3nc(C)no3)ncn1-2 [Compound 22]	< 100 nM
	COc1ccc2c(c1)-c1[nH]ncc1Cc1c(C3=N[C@H](c4ccc(Cl)cc4)CO3)ncn1-2 [Compound 24]	< 100 nM
> 1000 nM	CCOC(=O)c1cnc2n1CC(=O)N(Cc1ccc(OC)cc1OC)c1cc(Cl)ccc1-2 [Compound 25]	
> 1000 nM	Cc1noc(-c2cnc3n2CC(=O)Nc2cc(Cl)ccc2-3)n1 [Compound 26]	
> 1000 nM	CC(C)c1noc(-c2cnc3n2CC(=O)Nc2cc(Cl)ccc2-3)n1 [Compound 27]	
	CCOC(=O)c1cnc2n1CC(=O)N(C)c1cc(Cl)ccc1-2 [Compound 28]	> 1000 nM
> 1000 nM	CN1C(=O)Cn2c(C3=N[C@H](c4ccccc4)CO3)cnc2-c2ccc(Cl)cc21 [Compound 29]	
> 1000 nM	CN1C(=O)Cn2c(C3=N[C@@H](c4ccccc4)CO3)cnc2-c2ccc(Cl)cc21 [Compound 30]	
	CC(C)c1noc(-c2cnc3n2CC(=O)N(C)c2cc(Cl)ccc2-3)n1 [Compound 31]	> 1000 nM
	COc1ccc(Cn2ncc3c2-c2cc(OC)ccc2-n2cnc(C#Cc4ccc(OC)nc4)c2C3)cc1 [Compound 36]	100 to 1000 nM

Ki [1]	SMILES	Ki
	COc1ccc(Cn2ncc3c2-c2cc(OC)ccc2-n2cnc(C#Cc4ccnn4C)c2C3)cc1 [Compound 37]	100 to 1000 nM
	COc1ccc2c(c1)-c1[nH]ncc1Cc1c(C#Cc3ccc(OC)nc3)ncn1-2 [Compound 38]	< 100 nM
< 100 nM	CCOC(=O)c1ncn2c1Cc1cnoc1-c1cc(OC)ccc1-2 [Compound 40]	
> 1000 nM	COc1ccc2c(c1)-c1oncc1Cc1c(-c3nc(C(C)C)no3)ncn1-2 [Compound 41]	
> 1000 nM	COc1ccc2c(c1)-c1oncc1Cc1c(-c3nc(C)no3)ncn1-2 [Compound 42]	
	COc1ccc2c(c1)-c1nn(Cc3ccccc3F)cc1Cc1c(-c3nc(C(C)C)no3)ncn1-2 [Compound 43]	< 100 nM
	COc1ccc2c(c1)-c1c(cnn1C)Cc1c(-c3nc(C(C)C)no3)ncn1-2 [Compound 47]	100 to 1000 nM
> 1000 nM	COc1ccc2c(c1)-c1oncc1Cc1c(C3=N[C@@H](c4ccccc4)CO3)ncn1-2 [Compound 48]	
> 1000 nM	COc1ccc2c(c1)-c1oncc1Cc1c(C3=N[C@H](c4ccccc4)CO3)ncn1-2 [Compound 49]	
> 1000 nM	COc1ccc2c(c1)-c1oncc1Cc1c(C3=N[C@@H](c4ccc(C(F)(F)F)cc4)CO3)ncn1-2 [Compound 50]	
> 1000 nM	C#Cc1ncn2c1Cc1cnoc1-c1cc(OC)ccc1-2 [Compound 51]	
	COc1ccc(C#Cc2ncn3c2Cc2cn[nH]c2-c2cc(OC)ccc2-3)nc1 [Compound 53]	< 100 nM
	COc1ccc2c(c1)-c1[nH]ncc1Cc1c(-c3noc(C(C)C)n3)ncn1-2 [Compound 54]	< 100 nM
	CCOC(=O)c1cnc2n1Cc1nncn1-c1cc(Cl)ccc1-2 [Compound 56]	< 100 nM
	Clc1ccc2c(c1)-c1[nH]ncc1Cc1c(-c3cnn(-c4ccccc4)c3)ncn1-2 [Compound 60]	100 to 1000 nM
	Clc1ccc2c(c1)-c1[nH]ncc1Cc1c(-c3cnoc3)ncn1-2 [Compound 61]	100 to 1000 nM
	Cn1cc(-c2ncn3c2Cc2cn[nH]c2-c2cc(Cl)ccc2-3)cn1 [Compound 62]	100 to 1000 nM
	CC#Cc1ncn2c1Cc1cn[nH]c1-c1cc(Cl)ccc1-2 [Compound 65]	< 100 nM
> 1000 nM	CC(C)Cc1noc(-c2ncn3c2Cc2cnoc2-c2cc(Cl)ccc2-3)n1 [Compound 66]	
> 1000 nM	COc1ccc2c(c1)-c1oncc1Cc1c(-c3nc(CC(C)C)no3)ncn1-2 [Compound 67]	
> 1000 nM	CC(C)C[C@@H]1COC(c2ncn3c2Cc2cnoc2-c2cc(Cl)ccc2-3)=N1 [Compound 68]	
> 1000 nM	Cc1noc(-c2ncn3c2Cc2cnoc2-c2cc(Cl)ccc2-3)n1 [Compound 69]	
	COc1ccc2c(c1)-c1[nH]ncc1Cc1c(-c3cnn(-c4ccccc4)c3)ncn1-2 [Compound 70]	100 to 1000 nM

Ki [1]	SMILES	Ki
	COc1ccc2c(c1)-c1[nH]ncc1Cc1c(-c3ncco3)ncn1-2 [Compound 71]	< 100 nM
	COc1ccc2c(c1)-c1[nH]ncc1Cc1c(-c3cnn(Cc4ccccc4)c3)ncn1-2 [Compound 72]	< 100 nM
100 to 1000 nM	COc1ccc2c(c1)-c1[nH]ncc1Cc1c(C3=CCCC3)ncn1-2 [Compound 74]	
	COc1ccc2c(c1)-c1nn(Cc3ccccc3F)cc1Cc1c(-c3cnn(-c4ccccc4)c3)ncn1-2 [Compound 75]	100 to 1000 nM
	COc1ccc2c(c1)-c1nn(Cc3ccccc3F)cc1Cc1c(-c3cnn(Cc4ccccc4)c3)ncn1-2 [Compound 77]	< 100 nM
> 1000 nM	COc1ccc2c(c1)-c1[nH]ncc1Cc1c(-c3ccnn3C)ncn1-2 [Compound 78]	
	COc1ccc2c(c1)-c1[nH]ncc1Cc1c(-c3cc(C(F)(F)F)nn3C)ncn1-2 [Compound 79]	100 to 1000 nM
> 1000 nM	COc1ccc2c(c1)-c1[nH]ncc1Cc1c(-c3cn(C)cn3)ncn1-2 [Compound 80]	
> 1000 nM	COc1ccc2c(c1)-c1[nH]ncc1Cc1c(-c3cn(C)nc3C(F)(F)F)ncn1-2 [Compound 81]	
	COc1ccc2c(c1)-c1[nH]ncc1Cc1c(-c3cnn(C)c3)ncn1-2 [Compound 82]	100 to 1000 nM
< 100 nM	CC#Cc1ncn2c1Cc1cn[nH]c1-c1cc(OC)ccc1-2 [Compound 83]	
< 100 nM	COc1ccc2c(c1)-c1[nH]ncc1Cc1c(-c3noc(C(C)(C)C)n3)ncn1-2 [Compound 89]	
	CC(C)(C)C#Cc1ncn2c1Cc1cn(Cc3ccccc3)nc1-c1cc(Cl)ccc1-2 [Compound 92]	< 100 nM
	COc1ccc2c(c1)-c1[nH]ncc1Cc1c(-c3cnco3)ncn1-2 [Compound 95]	< 100 nM
	Cn1ncc2c1-c1cc(Cl)ccc1-n1cnc(C#CC(C)(C)C)c1C2 [Compound 102]	< 100 nM
	Clc1ccc2c(c1)-c1[nH]ncc1Cc1c(-c3nc(C4CCC4)no3)ncn1-2 [Compound 107]	< 100 nM
	COc1ccc2c(c1)-c1c(cnn1CC1CC1)Cc1c(-c3nc(C(F)(F)F)no3)ncn1-2 [Compound 117]	< 100 nM
	CCn1cc2c(n1)-c1cc(OC)ccc1-n1cnc(-c3nc(C4CC4)no3)c1C2 [Compound 152]	< 100 nM
	Cn1ncc2c1-c1cc(Cl)ccc1-n1cnc(-c3cnn(Cc4ccccc4)c3)c1C2 [Compound 164]	< 100 nM
	CC(C)n1cc2c(n1)-c1cc(Cl)ccc1-n1cnc(-c3cnn(Cc4ccccc4)c3)c1C2 [Compound 165]	100 to 1000 nM
	Cn1cc2c(n1)-c1cc(Cl)ccc1-n1cnc(-c3ncco3)c1C2 [Compound 166]	< 100 nM

SMILES	Ki [1]	Ki
Clc1ccc2c(c1)-c1c(cnn1Cc1ccccc1)Cc1c(C3=N[C@@H](c4ccccc4)CO3)ncn1-2 [Compound 6]	> 1000 nM	
Cc1noc(-c2cnc3n2CC(=O)N(C)c2cc(Cl)ccc2-3)n1 [Compound 32]	> 1000 nM	
CC(C)c1noc(-c2cnc3n2Cc2nncn2-c2cc(Cl)ccc2-3)n1 [Compound 58]	> 1000 nM	
CC(C)c1noc(-c2ncn3c2Cc2cnoc2-c2cc(Cl)ccc2-3)n1 [Compound 59]	> 1000 nM	
